Test results taken from patent US11739101B2, “Bifunctional degraders of hematopoietic progenitor kinase and therapeutic uses thereof” (Nurix Therapeutics, Inc., priority 2020, dated 2023).

molecular target: T1, HPK1 (Homo sapiens, UniProt Q92918); experiment: HPK1 Cellular HiBiT Degradation Assay; assay type: cell-based; settings: HiBiT-tagged HPK1 Jurkat cells, 24 hours, 10 uM to 0.1 nM; Dmax = 100 minus lowest % HPK1 remaining vs DMSO vehicle
T1 construct: A HiBiT tag was introduced by CRISPR on the N terminus of HPK1 in Jurkat cells; host or cells: Jurkat (ATCC TIB-152), monoclonal CRISPR HiBiT knock-in line
T1 sequence (Q92918 whole entry): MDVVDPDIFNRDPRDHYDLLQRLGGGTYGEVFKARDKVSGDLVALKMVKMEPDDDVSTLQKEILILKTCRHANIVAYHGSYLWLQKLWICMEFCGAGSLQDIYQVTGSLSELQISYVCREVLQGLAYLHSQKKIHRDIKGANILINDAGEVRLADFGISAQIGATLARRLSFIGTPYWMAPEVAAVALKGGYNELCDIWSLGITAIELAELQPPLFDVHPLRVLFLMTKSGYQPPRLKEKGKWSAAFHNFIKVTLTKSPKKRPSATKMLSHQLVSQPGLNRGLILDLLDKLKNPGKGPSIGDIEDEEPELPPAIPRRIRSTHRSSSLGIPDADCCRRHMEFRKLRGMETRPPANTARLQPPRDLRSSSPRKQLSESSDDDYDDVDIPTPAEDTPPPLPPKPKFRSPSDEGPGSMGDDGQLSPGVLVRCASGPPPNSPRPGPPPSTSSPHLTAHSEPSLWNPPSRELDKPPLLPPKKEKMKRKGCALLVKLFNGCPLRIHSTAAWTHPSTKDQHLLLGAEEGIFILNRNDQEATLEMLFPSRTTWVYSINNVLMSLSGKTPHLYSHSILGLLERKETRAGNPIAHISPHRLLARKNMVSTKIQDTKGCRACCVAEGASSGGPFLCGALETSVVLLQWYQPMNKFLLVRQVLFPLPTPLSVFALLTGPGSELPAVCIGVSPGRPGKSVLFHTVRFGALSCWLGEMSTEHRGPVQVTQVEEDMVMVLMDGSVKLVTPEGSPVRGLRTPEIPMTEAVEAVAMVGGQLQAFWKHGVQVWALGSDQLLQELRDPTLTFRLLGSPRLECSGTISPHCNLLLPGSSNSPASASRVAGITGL
Method in brief: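 Dmax is derived from four-parameter curves of % HPK1 remaining, as 100 minus the lowest value, normalized to DMSO-treated cells with parental Jurkat background subtracted. HiBiT-HPK1 knock-in Jurkat cells got compound for 24 hours (final 10 uM to 0.1 nM, 11 points) before lytic HiBiT luminescence. Cytotoxicity was checked on parallel CellTiter-Glo plates.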

Row | Structure (SMILES) | Dmax [%]
1 | Cc1cc(F)c(Nc2nc(-c3ccc4c(c3)N(C3CC(N5CCCCC5)C3)C(=O)C43CCN(C(=O)[C@@H]4CCN(C(=O)[C@H]5CC[C@H](Oc6cccc7c6C(=O)N(C6CCC(=O)NC6=O)C7=O)CC5)C4)CC3)cc3ncn(C(C)C)c23)cc1C(=O)NC(C)C (stereo partly drawn) [Example 54, 4-fluoro-2-methyl-5-[(6-{2-oxo-1′-[(3R)-1-[(1R,4R)-4-{[2-(2,6-dioxopiperidin-3-yl)-1,3-dioxo-2,3-dihydro-1H-isoindol-4-yl]oxy}cyclohexanecarbonyl]pyrrolidine-3-carbonyl]-1-[(1s,3s)-3-(piperidin-1-yl)cyclobutyl]-1,2-dihydrospiro[indole-3,4′-piperidin]-6-yl}-3-(propan-2-yl)-3H-imidazo[4,5-c]pyridin-4-yl)amino]-N-(propan-2-yl)benzamide] | < 45
2 | Cc1cc(F)c(Nc2nc(-c3ccc4c(c3)N([C@H]3C[C@@H](N5CCCCC5)C3)C(=O)C43CCN(C(=O)[C@H]4CC[C@@H](C(=O)N5CCC(Nc6cccc7c6C(=O)N(C6CCC(=O)NC6=O)C7=O)CC5)CC4)CC3)cc3ncn(C(C)C)c23)cc1C(=O)NC(C)C (stereo partly drawn) [Example 50, 4-fluoro-2-methyl-5-[(6-{2-oxo-1-[(1s,3s)-3-(piperidin-1-yl)cyclobutyl]-1′-[(1S,4s)-4-[4-({2-[2,6-dioxopiperidin-3-yl]-1,3-dioxo-2,3-dihydro-1H-isoindol-4-yl}amino)piperidine-1-carbonyl]cyclohexanecarbonyl]-1,2-dihydrospiro[indole-3,4′-piperidin]-6-yl}-3-(propan-2-yl)-3H-imidazo[4,5-c]pyridin-4-yl)amino]-N-(propan-2-yl)benzamide] | 45 to 65
3 | Cc1cc(F)c(Nc2nc(-c3ccc4c(c3)N([C@H]3C[C@@H](N5CCCCC5)C3)C(=O)C43CCN(C(=O)C4CCN(C(=O)C5CCN(c6ccc7c(c6)C(=O)N(C6CCC(=O)NC6=O)C7=O)CC5)C4)CC3)cc3ncn(C(C)C)c23)cc1C(=O)NC(C)C (some centres unmarked) [Example 40] | 45 to 65
4 | Cc1cc(F)c(Nc2nc(-c3ccc4c(c3)N([C@H]3C[C@@H](N5CCCCC5)C3)C(=O)C43CCN(C(=O)c4cnc(N5CCN(c6cccc7c6C(=O)N(C6CCC(=O)NC6=O)C7=O)CC5)cn4)CC3)cc3ncn(C(C)C)c23)cc1C(=O)NC(C)C (some centres unmarked) [Example 84, 5-((6-(1′-(5-(4-(2-(2,6-dioxopiperidin-3-yl)-1,3-dioxoisoindolin-4-yl)piperazin-1-yl)pyrazine-2-carbonyl)-2-oxo-1-((1s,3s)-3-(piperidin-1-yl)cyclobutyl)spiro[indoline-3,4′-piperidin]-6-yl)-3-isopropyl-3H-imidazo[4,5-c]pyridin-4-yl)amino)-4-fluoro-N-isopropyl-2-methylbenzamide] | 45 to 65
5 | Cc1cc(F)c(Nc2nc(-c3ccc4c(c3)N([C@H]3C[C@@H](N5CCCCC5)C3)C(=O)C43CCN(C(=O)C4CCN(C(=O)CC5CCN(c6cccc7c6C(=O)N(C6CCC(=O)NC6=O)C7=O)CC5)CC4)CC3)cc3ncn(C(C)C)c23)cc1C(=O)NC(C)C (some centres unmarked) [Example 36, 5-{[6-(1′-{1-[2-(1-{2-[2,6-dioxopiperidin-3-yl]-1,3-dioxo-2,3-dihydro-1H-isoindol-4-yl}piperidin-4-yl)acetyl]piperidine-4-carbonyl}-2-oxo-1-[(1s,3s)-3-(piperidin-1-yl)cyclobutyl]-1,2-dihydrospiro[indole-3,4′-piperidin]-6-yl)-3-(propan-2-yl)-3H-imidazo[4,5-c]pyridin-4-yl]amino}-4-fluoro-2-methyl-N-(propan-2-yl)benzamide] | < 45
